Legend:
Assay type in all cases: biochemical
BTK = BTK (Homo sapiens, UniProt Q06187); assay: BTK IC50 kinase inhibition assay
ITK = target: T1, ITK (Homo sapiens, UniProt Q08881); assay: ITK IC50 kinase inhibition assay
T1 sequence (Q08881 1-620): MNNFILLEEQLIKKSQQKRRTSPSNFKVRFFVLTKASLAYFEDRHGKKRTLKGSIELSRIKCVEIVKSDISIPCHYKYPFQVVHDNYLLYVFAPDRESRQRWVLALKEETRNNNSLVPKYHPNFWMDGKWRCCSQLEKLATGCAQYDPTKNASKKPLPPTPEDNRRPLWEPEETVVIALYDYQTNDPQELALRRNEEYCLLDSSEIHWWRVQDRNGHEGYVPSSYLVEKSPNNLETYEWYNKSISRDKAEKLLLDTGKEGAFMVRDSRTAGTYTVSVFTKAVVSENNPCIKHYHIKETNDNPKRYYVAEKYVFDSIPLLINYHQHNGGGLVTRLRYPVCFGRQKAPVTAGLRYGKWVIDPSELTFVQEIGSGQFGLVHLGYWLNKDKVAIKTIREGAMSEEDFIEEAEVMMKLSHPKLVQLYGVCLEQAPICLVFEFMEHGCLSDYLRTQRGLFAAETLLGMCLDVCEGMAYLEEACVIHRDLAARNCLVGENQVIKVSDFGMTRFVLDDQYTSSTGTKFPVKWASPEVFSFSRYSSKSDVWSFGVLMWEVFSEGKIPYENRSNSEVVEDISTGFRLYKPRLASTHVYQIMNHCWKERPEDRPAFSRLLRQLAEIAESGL

TXK = target: T2, TXK (Homo sapiens, UniProt P42681); assay: TXK IC50 kinase inhibition assay
T2 sequence (P42681 1-527): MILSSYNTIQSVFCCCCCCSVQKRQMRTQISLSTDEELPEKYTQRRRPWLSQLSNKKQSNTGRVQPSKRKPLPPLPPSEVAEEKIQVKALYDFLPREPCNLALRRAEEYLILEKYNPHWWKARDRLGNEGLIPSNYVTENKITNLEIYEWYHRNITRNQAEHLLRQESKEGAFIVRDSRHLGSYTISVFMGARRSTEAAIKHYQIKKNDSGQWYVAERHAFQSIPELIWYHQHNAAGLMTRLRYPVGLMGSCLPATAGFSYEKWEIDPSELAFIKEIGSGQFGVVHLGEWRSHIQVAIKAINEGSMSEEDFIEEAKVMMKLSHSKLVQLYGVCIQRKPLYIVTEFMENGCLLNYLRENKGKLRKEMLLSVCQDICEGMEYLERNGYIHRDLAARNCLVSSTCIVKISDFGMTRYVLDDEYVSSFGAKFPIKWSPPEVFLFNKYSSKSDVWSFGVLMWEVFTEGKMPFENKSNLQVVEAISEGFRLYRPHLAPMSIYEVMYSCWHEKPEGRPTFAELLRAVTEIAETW

JAK3 = target: T3, JAK3 (Homo sapiens, UniProt P52333); assay: JAK3 IC50 kinase inhibition assay
T3 sequence (P52333 1-1124): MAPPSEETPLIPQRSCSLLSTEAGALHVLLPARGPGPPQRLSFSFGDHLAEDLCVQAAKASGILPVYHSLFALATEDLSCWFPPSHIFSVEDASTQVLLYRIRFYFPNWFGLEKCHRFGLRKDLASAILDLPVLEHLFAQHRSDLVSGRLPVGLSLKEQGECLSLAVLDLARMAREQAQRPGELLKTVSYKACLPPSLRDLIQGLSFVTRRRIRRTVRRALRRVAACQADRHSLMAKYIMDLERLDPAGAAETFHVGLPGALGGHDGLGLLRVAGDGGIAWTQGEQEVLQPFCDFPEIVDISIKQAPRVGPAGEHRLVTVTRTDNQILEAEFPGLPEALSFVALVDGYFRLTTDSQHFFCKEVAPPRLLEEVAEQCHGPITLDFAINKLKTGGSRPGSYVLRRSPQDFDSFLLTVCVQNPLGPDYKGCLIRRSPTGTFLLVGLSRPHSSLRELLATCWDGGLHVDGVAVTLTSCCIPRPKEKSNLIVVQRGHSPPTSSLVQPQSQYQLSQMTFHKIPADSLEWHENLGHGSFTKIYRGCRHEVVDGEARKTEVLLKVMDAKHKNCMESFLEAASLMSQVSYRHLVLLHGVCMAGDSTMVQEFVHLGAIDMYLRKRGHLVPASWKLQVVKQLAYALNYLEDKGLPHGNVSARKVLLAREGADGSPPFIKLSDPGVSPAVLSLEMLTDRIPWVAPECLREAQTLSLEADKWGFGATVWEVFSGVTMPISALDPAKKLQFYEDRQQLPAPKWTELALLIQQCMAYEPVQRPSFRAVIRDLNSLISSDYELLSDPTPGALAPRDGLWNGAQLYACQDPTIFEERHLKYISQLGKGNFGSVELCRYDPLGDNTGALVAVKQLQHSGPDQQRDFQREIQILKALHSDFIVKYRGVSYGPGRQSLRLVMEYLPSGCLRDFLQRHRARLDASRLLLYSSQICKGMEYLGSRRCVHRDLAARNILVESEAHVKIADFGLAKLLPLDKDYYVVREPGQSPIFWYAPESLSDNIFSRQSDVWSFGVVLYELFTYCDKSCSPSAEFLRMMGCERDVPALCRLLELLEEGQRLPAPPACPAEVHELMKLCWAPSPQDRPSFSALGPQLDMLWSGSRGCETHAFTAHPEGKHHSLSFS

BTK, sequence (Q06187 whole entry): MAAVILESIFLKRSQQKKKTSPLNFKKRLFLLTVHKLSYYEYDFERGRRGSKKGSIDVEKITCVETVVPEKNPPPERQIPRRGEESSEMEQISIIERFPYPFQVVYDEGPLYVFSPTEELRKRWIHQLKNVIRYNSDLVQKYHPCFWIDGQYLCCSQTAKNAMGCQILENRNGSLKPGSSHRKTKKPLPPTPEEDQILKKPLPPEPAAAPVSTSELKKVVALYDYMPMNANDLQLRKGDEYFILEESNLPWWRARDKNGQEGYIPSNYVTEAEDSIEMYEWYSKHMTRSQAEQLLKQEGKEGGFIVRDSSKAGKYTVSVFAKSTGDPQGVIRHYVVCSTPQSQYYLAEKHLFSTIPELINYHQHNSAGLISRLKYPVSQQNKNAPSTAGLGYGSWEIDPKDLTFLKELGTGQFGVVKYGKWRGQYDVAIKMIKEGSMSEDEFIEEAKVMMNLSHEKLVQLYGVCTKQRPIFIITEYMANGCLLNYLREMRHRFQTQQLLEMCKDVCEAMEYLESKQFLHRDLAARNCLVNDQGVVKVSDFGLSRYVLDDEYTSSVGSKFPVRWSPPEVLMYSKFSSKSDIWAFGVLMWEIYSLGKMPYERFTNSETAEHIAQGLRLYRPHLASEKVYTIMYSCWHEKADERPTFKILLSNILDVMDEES

Row | Structure (SMILES) | IC50 (BTK) [nM] | IC50 (ITK) [nM] | IC50 (TXK) [nM] | IC50 (JAK3) [nM]
1 | C=CC(=O)N1CC(n2nc(-c3ccc(Oc4ccccc4)cc3)c3cncnc32)C1 [Compound A13, 1-(3-(3-(4-phenoxyphenyl)-1H-pyrazolo[3,4-d]pyrimidin-1-yl)azetidin-1-yl)prop-2-en-1-one] | 100 to 500 | > 500 | 100 to 500 | > 500
2 | C=CC(=O)N1CC[C@@H](Cn2nc(-c3ccc(Oc4ccccc4)cc3)c3cncnc32)C1 [Compound A14, (R)-1-(3-((3-(4-phenoxyphenyl)-1H-pyrazolo[34-d]pyrimidin-1-yl)methyl)pyrrolidin-1-yl)prop-2-en-1-one] | 100 to 500 | > 500 | 100 to 500 | > 500
3 | C=CC(=O)N1CCC[C@@H](n2nc(-c3ccc(Oc4ccccc4)c(C)c3)c3cncnc32)C1 [Compound A5, (R)-1-(3-(3-(3-methyl-4-phenoxyphenyl)-1H-pyrazolo[3,4-d]pyrimidin-1-yl)piperidin-1-yl)prop-2-en-1-one] | < 100 | > 500 | 100 to 500 | > 500
4 | C=CC(=O)N1CC[C@@H](n2nc(-c3ccc(Oc4ccccc4)cc3)c3cncnc32)C1 [Compound A6, (R)-1-(3-(3-(4-phenoxyphenyl)-1H-pyrazolo[3,4-d]pyrimidin-1-yl)pyrrolidin-1-yl)prop-2-en-1-one] | < 100 | > 500 | < 100 | > 500
5 | CC#CC(=O)N1CCC[C@H]1c1nc(-c2ccc(Oc3ccccc3)cc2)c2cnccn12 [Compound A31, (S)-1-(2-(1-(4-phenoxyphenyl)imidazo[1,5-a]pyrazin-3-yl)pyrrolidin-1-yl)but-2-yn-1-one] | > 500 | > 500 | > 500 | > 500
6 | C=CC(=O)N1CCC[C@@H](n2nc(-c3cccc(Oc4ccccc4)c3)c3cncnc32)C1 [Compound A1, (R)-1-(3-(3-(3-phenoxyphenyl)-1H-pyrazolo[3,4-d]pyrimidin-1-yl)piperidin-1-yl)prop-2-en-1-one] | < 100 | > 500 | 100 to 500 | > 500
7 | C=CC(=O)N1CCC[C@@H](n2nc(-c3ccc(Oc4ccccc4)cc3)c3cncnc32)C1 [Compound A9, (R)-1-(3-(3-(4-phenoxyphenyl)-1H-pyrazolo[3,4-d]pyrimidin-1-yl)piperidin-1-yl)prop-2-en-1-one] | < 100 | > 500 | < 100 | > 500

The next lines start with the values.

Row | IC50 (BTK) [nM] | IC50 (ITK) [nM] | IC50 (TXK) [nM] | IC50 (JAK3) [nM] | Structure (SMILES)
8 | < 100 | > 500 | < 100 | > 500 | C=CC(=O)N1CCC[C@@]1(C)Cn1nc(-c2ccc(Oc3ccccc3)cc2)c2cncnc21 [Compound A45, (S)-1-(2-methyl-2-((3-(4-phenoxyphenyl)-1H-pyrazolo[3,4-d]pyrimidin-1-yl)methyl)pyrrolidin-1-yl)prop-2-en-1-one]
9 | < 100 | > 500 | 100 to 500 | > 500 | C=CC(=O)N1CCC[C@@H](n2nc(-c3ccc(Oc4c(F)cccc4F)cc3)c3cncnc32)C1 [Compound A50, (R)-1-(3-(3-(4-(2,6-difluorophenoxy)phenyl)-1H-pyrazolo[3,4-d]pyrimidin-1-yl)piperidin-1-yl)prop-2-en-1-one]
10 | < 100 | > 500 | < 100 | > 500 | COCC#CC(=O)N1CC2(CC(n3nc(-c4ccc(Oc5ccccc5)cc4)c4cncnc43)C2)C1 [Compound A79, 4-Methoxy-1-(6-(3-(4-phenoxyphenyl)-1H-pyrazolo[3,4-d]pyrimidin-1-yl)-2-azaspiro[3.3]heptan-2-yl)but-2-yn-1-one]
11 | 100 to 500 | > 500 | > 500 | > 500 | CC#CC(=O)N1CC[C@H]1Cn1nc(-c2ccc(Oc3ccccc3)cc2)c2cncnc21 [Compound A66, (S)-1-(2-((3-(4-phenoxyphenyl)-1H-pyrazolo[3,4-d]pyrimidin-1-yl)methyl)azetidin-1-yl)but-2-yn-1-one]
12 | 100 to 500 | > 500 | > 500 | > 500 | CC#CC(=O)N1CC[C@@H](Cn2nc(-c3ccc(Oc4ccccc4)cc3)c3cncnc32)C1 [Compound A63, (R)-1-(3-((3-(4-phenoxyphenyl)-1H-pyrazolo[3,4-d]pyrimidin-1-yl)methyl)pyrrolidin-1-yl)but-2-yn-1-one]
13 | < 100 | > 500 | < 100 | > 500 | C=CC(=O)N1CC[C@@H]1Cn1nc(-c2ccc(Oc3ccccc3)cc2)c2cncnc21 [Compound A53, (R)-1-(2-((3-(4-phenoxyphenyl)-1H-pyrazolo[3,4-d]pyrimidin-1-yl)methyl)azetidin-1-yl)prop-2-en-1-one]
14 | < 100 | > 500 | > 500 | > 500 | CC#CC(=O)N[C@H]1C[C@H](n2nc(-c3ccc(Oc4ccccc4)cc3)c3cncnc32)C1 [Compound A69, N-((1r,3r)-3-(3-(4-phenoxyphenyl)-1H-pyrazolo[3,4-d]pyrimidin-1-yl)cyclobutyl)but-2-ynamide]
15 | < 100 | > 500 | < 100 | > 500 | C=CC(=O)N1CCC[C@H]1Cn1nc(-c2ccc(Oc3cccc(C)c3)cc2)c2cncnc21 [Compound A48, (S)-1-(2-((3-(4-(m-tolyloxy)phenyl)-1H-pyrazolo[3,4-d]pyrimidin-1-yl)methyl)pyrrolidin-1-yl)prop-2-en-1-one]
16 | 100 to 500 | > 500 | > 500 | > 500 | CC#CC(=O)N1CCC(n2nc(-c3ccc(Oc4ccccc4)cc3)c3cncnc32)CC1 [Compound A59, 1-(4-(3-(4-phenoxyphenyl)-1H-pyrazolo[3,4-d]pyrimidin-1-yl)piperidin-1-yl)but-2-yn-1-one]
17 | 100 to 500 | > 500 | > 500 | > 500 | C=CC(=O)N1CCC[C@@H](n2nc(-c3ccc(Oc4ccccc4)cc3C#N)c3cncnc32)C1 [Compound A33, (R)-2-(1-(1-acryloylpiperidin-3-yl)-H-pyrazolo[3,4-d]pyrimidin-3-yl)-5-phenoxybenzonitrile]
18 | < 100 | > 500 | < 100 | > 500 | C=CC(=O)N1CC[C@H]1Cn1nc(-c2ccc(Oc3ccccc3)cc2)c2cncnc21 [Compound A51, (S)-1-(2-((3-(4-phenoxyphenyl)-1H-pyrazolo[3,4-d]pyrimidin-1-yl)methyl)azetidin-1-yl)prop-2-en-1-one]
